pEC50: −log10 of the molar value. Read-outs that look alike come from different tables or passages of the source.
How the values were obtained:
[1] = tested on: aCD3/aCD28-stimulated human PBMCs; assay: Cytokine production in aCD3/aCD28 stimulated human PBMCs; type: cell-based; settings: PBMC, 18 h
Procedure, shortened: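 Compound effects measured in buffy-coat PBMCs activated 18 h at 37° C by 1 μg/mL each of soluble anti-CD3 (OKT3) and anti-CD28 (28.2), 1e6 cells/mL. Cytokines in harvested supernatants read by MSD or HTRF.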

[2] = tested on: aCD3/aCD28-stimulated human CD4+-T-cells; assay: IL-2 production and activation markers in aCD3/aCD28 stimulated isolated human CD4+-T-cells; type: cell-based; settings: IL-2 production at 3 μM compound
Procedure, shortened: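 CD4+ T cells isolated from buffy-coat PBMCs by microbeads were plated in Xvivo medium (1.5*10^5 cells/well) and stimulated with anti-CD3/28 mAbs plus compound. IL-2 measured by ELISA in supernatants at 24 h or 48 h; CD25 and proliferation by flow cytometry, CD69 at 24 h. Activity classes based on IL-2 at 3 μM compound.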

[3] = enhancement of IFN-γ production, read-out: Activity Class IFN-γ
[4] = enhancement of IL-2 production, read-out: Activity Class IL-2

In the case of `CCCCNC(=O)c1ccc2c(c1)N(Cc1ccc(-n3cncn3)cc1)C(=O)[C@@H](N)CS2.Cl` [Example 46, (3R)-3-amino-N-butyl-4-oxo-5-{[4-(1H-1,2,4-triazol-1-yl)phenyl]methyl}-2,3,4,5-tetrahydro-1,5-benzothiazepine-7-carboxamide hydrochloride], the pEC50 [1, 3] was 5.30 to 5.80, the pEC50 [1, 4] was < 5.30 and the “Activity Class CD4+” value [2] was “C (IL-2 production at 3 μM compound concentration between 2-fold increase as compared to mean IL-2 production of stimulated cells in the absence of compounds and <2 ng/mL)”.
`CC(C)(O)CNC(=O)c1ccc2c(c1)N(Cc1ccc(Cl)cc1)C(=O)[C@@H](N)CS2` [Example 48, (3R)-3-amino-5-[(4-chlorophenyl)methyl]-N-(2-hydroxy-2-methylpropyl)-4-oxo-2,3,4,5-tetrahydro-1,5-benzothiazepine-7-carboxamide] was tested, and the pEC50 [1, 3] was 5.30 to 5.80, the pEC50 [1, 4] was < 5.30 and the “Activity Class CD4+” value [2] was “C (IL-2 production at 3 μM compound concentration between 2-fold increase as compared to mean IL-2 production of stimulated cells in the absence of compounds and <2 ng/mL)”.
For `CC(C)(O)CNC(=O)c1cc2c(cc1F)SC[C@H](N)C(=O)N2Cc1ccc(Cl)cc1` [Example 50, (3R)-3-amino-5-[(4-chlorophenyl)methyl]-8-fluoro-N-(2-hydroxy-2-methylpropyl)-4-oxo-2,3,4,5-tetrahydro-1,5-benzothiazepine-7-carboxamide], the pEC50 [1, 3] was 5.30 to 5.80, the pEC50 [1, 4] was < 5.30 and the “Activity Class CD4+” value [2] was “C (IL-2 production at 3 μM compound concentration between 2-fold increase as compared to mean IL-2 production of stimulated cells in the absence of compounds and <2 ng/mL)”.
With `C[C@H]1Sc2ccc(C(=O)NCCCC(F)(F)F)cc2N(Cc2ccc(Cl)cc2)C(=O)[C@H]1N.Cl` [Example 51, (2R,3R)-3-amino-5-[(4-chlorophenyl)methyl]-2-methyl-4-oxo-N-(4,4,4-trifluorobutyl)-2,3,4,5-tetrahydro-1,5-benzothiazepine-7-carboxamide hydrochloride] the pEC50 [1, 3] was > 5.80, the pEC50 [1, 4] was 5.30 to 5.80 and the “Activity Class CD4+” value [2] was “C (IL-2 production at 3 μM compound concentration between 2-fold increase as compared to mean IL-2 production of stimulated cells in the absence of compounds and <2 ng/mL)”.
In the case of `CCCC(=O)NNC(=O)c1ccc2c(c1)N(Cc1ccc(Cl)cc1)C(=O)[C@@H](N)CS2.Cl` [Example 53, (3R)-3-amino-N′-butanoyl-5-[(4-chlorophenyl)methyl]-4-oxo-2,3,4,5-tetrahydro-1,5-benzothiazepine-7-carbohydrazide hydrochloride], the pEC50 [1, 3] was < 5.30, the pEC50 [1, 4] was < 5.30 and the “Activity Class CD4+” value [2] was “C (IL-2 production at 3 μM compound concentration between 2-fold increase as compared to mean IL-2 production of stimulated cells in the absence of compounds and <2 ng/mL)”.
In the case of `CCCCNC(=O)c1cc2c(cc1F)SC[C@H](N)C(=O)N2Cc1ccc(Cl)cc1F.Cl` [Example 54, (3R)-3-amino-N-butyl-5-[(4-chloro-2-fluorophenyl)methyl]-8-fluoro-4-oxo-2,3,4,5-tetrahydro-1,5-benzothiazepine-7-carboxamide hydrochloride], the pEC50 [1, 3] was 5.30 to 5.80, the pEC50 [1, 4] was 5.30 to 5.80 and the “Activity Class CD4+” value [2] was “B (IL-2 production at 3 μM compound concentration between 2-10 ng/mL)”.
For `Cl.N[C@H]1CSc2cc(F)c(C(=O)NCC3CCOCC3)cc2N(Cc2ccc(Cl)cc2F)C1=O` [Example 55, (3R)-3-amino-5-[(4-chloro-2-fluorophenyl)methyl]-8-fluoro-N-(oxan-4-ylmethyl)-4-oxo-2,3,4,5-tetrahydro-1,5-benzothiazepine-7-carboxamide hydrochloride], the pEC50 [1, 3] was 5.30 to 5.80, the pEC50 [1, 4] was 5.30 to 5.80 and the “Activity Class CD4+” value [2] was “B (IL-2 production at 3 μM compound concentration between 2-10 ng/mL)”.
For `Cl.N[C@H]1CSc2cc(F)c(C(=O)NCC3CCOCC3)cc2N(Cc2ccc(Cl)c(F)c2)C1=O` [Example 56, (3R)-3-amino-5-[(4-chloro-3-fluorophenyl)methyl]-8-fluoro-N-(oxan-4-ylmethyl)-4-oxo-2,3,4,5-tetrahydro-1,5-benzothiazepine-7-carboxamide hydrochloride], the pEC50 [1, 3] was > 5.80, the pEC50 [1, 4] was 5.30 to 5.80 and the “Activity Class CD4+” value [2] was “C (IL-2 production at 3 μM compound concentration between 2-fold increase as compared to mean IL-2 production of stimulated cells in the absence of compounds and <2 ng/mL)”.
In the case of `CCCCNC(=O)c1cc2c(cc1F)SC[C@H](N)C(=O)N2Cc1ccc(Cl)c(F)c1` [Example 57, (3R)-3-amino-N-butyl-5-[(4-chloro-3-fluorophenyl)methyl]-8-fluoro-4-oxo-2,3,4,5-tetrahydro-1,5-benzothiazepine-7-carboxamide], the pEC50 [1, 3] was > 5.80, the pEC50 [1, 4] was 5.30 to 5.80 and the “Activity Class CD4+” value [2] was “C (IL-2 production at 3 μM compound concentration between 2-fold increase as compared to mean IL-2 production of stimulated cells in the absence of compounds and <2 ng/mL)”.
With `CCCONC(=O)c1cc2c(cc1F)SC[C@H](N)C(=O)N2Cc1ccc(Cl)cc1.Cl` [Example 58, (3R)-3-amino-5-[(4-chlorophenyl)methyl]-8-fluoro-4-oxo-N-propoxy-2,3,4,5-tetrahydro-1,5-benzothiazepine-7-carboxamide hydrochloride] the pEC50 [1, 3] was < 5.30, the pEC50 [1, 4] was < 5.30 and the “Activity Class CD4+” value [2] was “C (IL-2 production at 3 μM compound concentration between 2-fold increase as compared to mean IL-2 production of stimulated cells in the absence of compounds and <2 ng/mL)”.
For `CC(C)CONC(=O)c1cc2c(cc1F)SC[C@H](N)C(=O)N2Cc1ccc(Cl)cc1.Cl` [Example 59, (3R)-3-amino-5-[(4-chlorophenyl)methyl]-8-fluoro-N-(2-methylpropoxy)-4-oxo-2,3,4,5-tetrahydro-1,5-benzothiazepine-7-carboxamide hydrochloride], the pEC50 [1, 3] was 5.30 to 5.80, the pEC50 [1, 4] was 5.30 to 5.80 and the “Activity Class CD4+” value [2] was “C (IL-2 production at 3 μM compound concentration between 2-fold increase as compared to mean IL-2 production of stimulated cells in the absence of compounds and <2 ng/mL)”.
In the case of `CC(C)CNNC(=O)c1cc2c(cc1F)SC[C@H](N)C(=O)N2Cc1ccc(Cl)cc1.Cl` [Example 60, (3R)-3-amino-5-[(4-chlorophenyl)methyl]-8-fluoro-N′-(2-methylpropyl)-4-oxo-2,3,4,5-tetrahydro-1,5-benzothiazepine-7-carbohydrazide hydrochloride], the pEC50 [1, 3] was > 5.80, the pEC50 [1, 4] was 5.30 to 5.80 and the “Activity Class CD4+” value [2] was “C (IL-2 production at 3 μM compound concentration between 2-fold increase as compared to mean IL-2 production of stimulated cells in the absence of compounds and <2 ng/mL)”.
`CC(C)C(C)NC(=O)c1ccc2c(c1)N(Cc1ccc(Cl)cc1)C(=O)[C@@H](N)CS2.Cl` (stereo partly drawn) [Example 63, (3R)-3-amino-5-[(4-chlorophenyl)methyl]-N-(3-methylbutan-2-yl)-4-oxo-2,3,4,5-tetrahydro-1,5-benzothiazepine-7-carboxamide hydrochloride] was tested, and the pEC50 [1, 3] was 5.30 to 5.80, the pEC50 [1, 4] was 5.30 to 5.80 and the “Activity Class CD4+” value [2] was “B (IL-2 production at 3 μM compound concentration between 2-10 ng/mL)”.
With `C=CCCNC(=O)c1ccc2c(c1)N(Cc1ccc(Cl)cc1)C(=O)[C@@H](N)CS2.Cl` [Example 64, (3R)-3-amino-N-(but-3-en-1-yl)-5-[(4-chlorophenyl)methyl]-4-oxo-2,3,4,5-tetrahydro-1,5-benzothiazepine-7-carboxamide hydrochloride] the pEC50 [1, 3] was 5.30 to 5.80, the pEC50 [1, 4] was < 5.30 and the “Activity Class CD4+” value [2] was “C (IL-2 production at 3 μM compound concentration between 2-fold increase as compared to mean IL-2 production of stimulated cells in the absence of compounds and <2 ng/mL)”.

From patent US10472341B2, “Bicyclic tetrahydrothiazepine derivatives useful for the treatment of neoplastic and/or infectious diseases” (APEIRON BIOLOGICS AG, priority 2015, dated 2019)
